The values below are quoted from earlier work in patent US20190105332A1, “METHODS OF TREATING PROSTATE CANCER” (Janssen Oncology, Inc., priority 2017, published 2019).

For the series the following is noted: in vivo.

Regarding `C[C@]12CC[C@H](OS(=O)(=O)O)CC1=CC[C@@H]1[C@@H]2CC[C@]2(C)C(c3ccc[n+]([O-])c3)=CC[C@@H]12` [N-oxide abiraterone sulphate], the activity of metabolite result was “inactive” and the “share of exposure as circulating metabolite in human plasma” value is given as “about 43%”.

Take abiraterone sulphate: the activity of metabolite entry is “inactive” and the “share of exposure as circulating metabolite in human plasma” value was “about 43%”.
